Our source for the IC50 and Kd values is BindingDB's records for PubMed 39288705 (Comenius University Bratislava).

The target of assay [1] is T1, Replicase polyprotein 1ab (Severe acute respiratory syndrome coronavirus 2, UniProt P0DTD1). Put plainly: Inhibition of SARS-CoV-2 3CL protease extracted from Escherichia coli BL21 (DE3) Rosetta cells using DabcylKNSTLQSGLRKE-Edan as substrate preincubated for 60 mins followed by substrate addition and measured after 20 mins by FRET assay.
The target in assay [2] is T1, Replicase polyprotein 1ab. Put plainly: Binding affinity to SARS-CoV-2 3CL protease extracted from Escherichia coli BL21 (DE3) Rosetta cells assessed as dissociation constant.
Assay [3] has as its target T1, Replicase polyprotein 1ab. Put plainly: Binding affinity to SARS-CoV-2 3CL protease assessed as dissociation constant by SPR analysis. For orientation: SPR reads the build-up and loss of mass on a sensor chip optically.
In assay [4] the target is T1, Replicase polyprotein 1ab. The assay is described as follows: Inhibition of SARS-CoV-2 3CL protease by FRET assay.

`CCC(C(=O)Nc1cc(NC2CCOCC2)ccc1C)n1cc(Cl)cc2nc(SCc3ccc(F)cc3)nc1-2` (stereo not given): the IC50 – broadly, the concentration needed to halve the response being measured – in assay [1] came out at 0.52 µM. The equilibrium dissociation constant (Kd) (as a rule, the equilibrium constant for the complex coming apart) in assay [2] came to 1 µM.
For the molecule `CCC(C(=O)Nc1cc(NC2CCOC2)ccc1C)n1cc(Cl)cc2nc(SCc3ccc(F)cc3)nc1-2` (stereo not given), in assay [2], the dissociation constant (Kd) came to 1.11 µM.
In the case of `CCC(C(=O)Nc1cc(NC2COC2)ccc1C)n1cccc2nc(SCc3ccc(F)cc3)nc1-2` (stereo not given), in assay [3], the Kd amounted to 1.4 µM.
`CCC(C(=O)Nc1cc(NC2CCNC2)ccc1C)n1cccc2nc(SCc3ccc(F)cc3)nc1-2` (stereo not given) had a half-inhibitory concentration (IC50) in assay [4] of 0.14 µM.
